CCOC(=O)C1(c2ccccc2)CCN(CCC(C#N)(c2ccccc2)c2ccccc2)CC1
solubility (mole fraction)
Settings | in acetone | in acetonitrile | in ethanol | in isopropanol | in methanol | in water
293.15 K | 0.00426 | 0.00427 | 0.00169 | 0.000258 | 0.00598 | 8.6e-06
298.15 K | 0.00479 | 0.005 | 0.00198 | 0.000442 | 0.00791 | 1.19e-05
303.15 K | 0.00559 | 0.00601 | 0.0023 | 0.000627 | 0.0105 | 1.45e-05
308.15 K | 0.00608 | 0.00727 | 0.0027 | 0.000859 | 0.0123 | 1.96e-05
313.15 K | 0.00664 | 0.00919 | 0.00325 | 0.00108 | 0.0144 | 2.7e-05
318.15 K | 0.00776 | 0.0124 | 0.00432 | 0.00156 | 0.0184 | 3.28e-05
